Measured values from paper PMC11802874, “The hypolipidemic effect of MI-883, the combined CAR agonist/ PXR antagonist, in diet-induced hypercholesterolemia model” (Nature Communications, 2025).
Where “and” joins values, the source holds several entries; their conditions need not be identical. Identical values can stand only once.

Tests used:
HepaRG KO CAR cells = test: RT-qPCR mRNA expression in HepaRG KO CAR cells; type: cell-based, human
Text: HepaRG cells from Biopredic (Rennes, France) were cultivated and differentiated on the 12-well plates. […] Several batches of HepaRG KO CAR (CAR Knockout HepaRG™ Cells, MTOX1012-1VL, RRID:CVCL_B6AA) and PXR Knockout HepaRG™ Cells, MTOX1011-1VL, RRID:CVCL_B6AS) cells have been obtained from Sigma-Aldrich/Merck (Darmstadt, Germany) and cultivated according to the provider’s protocols. […] Experiments with HepaRG KO PXR and HepaRG KO CAR cells have been performed in duplicates at least in two independent experiments.
RT-qPCR was used to examine gene expression in 2D and 3D PHH, HepaRG cells, or in mouse liver or intestine (ileum) samples as we have described before[60]–[62].
All qRT-qPCR experiments including Trizol reagent (Life Technologies) total RNA isolation, reverse-transcription using a random hexaprimer, and the MMLV Reverse Transcriptase Kit (ThermoFisher Scientific) we have described before^19. qPCR was performed using TaqMan Fast Advanced Master Mix with TaqMan probes (ThermoFisher Scientific). […] The delta-delta method was used for gene expression quantification normalized to at least two reference genes. Three technical replicates were used for each reaction considering the MIQE guidelines. Data are presented as fold induction to vehicle-treated cells/animals.

PXR/NCOA2 = molecular target: T1, PXR/NCOA2 (Homo sapiens, UniProt O75469); test: Mammalian two-hybrid PXR/coactivator NCOA2 recruitment, HepG2; type: cell-based; parameters: key: firefly/Metridia luciferase activity ratio (normalized)
T1 construct: PXR-LBD (residues 108–434); expressed in transfected cells; host or cells: HepG2
T1 sequence (O75469 108-434): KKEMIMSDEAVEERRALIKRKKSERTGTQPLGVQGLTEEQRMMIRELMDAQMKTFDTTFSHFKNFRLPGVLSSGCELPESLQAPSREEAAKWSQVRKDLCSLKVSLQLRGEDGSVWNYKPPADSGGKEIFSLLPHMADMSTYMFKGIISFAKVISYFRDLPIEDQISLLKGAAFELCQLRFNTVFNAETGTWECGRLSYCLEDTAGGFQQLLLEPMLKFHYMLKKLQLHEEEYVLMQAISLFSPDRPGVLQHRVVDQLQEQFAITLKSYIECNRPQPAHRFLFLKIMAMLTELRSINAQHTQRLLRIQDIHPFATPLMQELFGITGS
Protocol: The GAL4-dependent pGL4-G5, harboring a pentamer of GAL4 binding sites in front of the E1b promoter was described before.
Transient batch transfection of HepG2 cells was done as described above. […] All transfections included 0.01 µg pMetLuc2control per well for normalization of firefly luciferase reporter activities. After overnight incubation with the transfection mixtures, cells were treated with chemicals in a volume of 100 µl of cell culture medium. […] Firefly luciferase activity was measured in 10 µl of cell lysates, and Metridia luciferase activity was analyzed in 10 µl of medium supernatant, both as described before. Results were normalized by dividing firefly luciferase activity by Metridia luciferase activity measured from the same well. Measurements of samples were repeated several times (n ≥ 3).

[1] = system: humanized PXR-CAR-CYP3A4/3A7 mice fed HFD; test: High-fat diet (HFD) study: weights, food intake, plasma biochemistry, histology; type: in vivo, mouse; parameters: BW (Fig 4b) / LW (Fig 4b) / LDL (Fig. 4e) / HDL (Fig. 4e) / TG (Fig. 4e) / Chol (Fig. 4e) / Glu (Fig. 4e) / food intake (Fig 4c) / AST / ALT / ALB / ALP / LDH / Urea / Uric acid / Fe / Bilirubin / CREZ / BW: unit not given here; conditions: for BW: FigS12c, group mean
Protocol: For experiment involving a HFD in the model of diet-induced metabolic syndrome and type 2 diabetes with hypercholesterolemia, both male and female mice at the age of 10–15 weeks were pretreated for 8 weeks with HFD (E15186 EF R/M with 30% fat, ssniff ®, Soest, Germany) containing 30.1% crude fat, 20.8% protein and 171 mg/kg of cholesterol, ad libitum (Fig. 4a). Mice were then randomly assigned to MI-883 or control groups (17 male animals per group for the control or MI-883-treated group, 15 female animals per group for control and MI-883 treated groups, respectively). They were administered via oral gavage with either MI-883 treatment (5 mg/kg, 3x per week on Mo, We, Fri) or vehicle (5%DMSO/5%PEG300/90%corn oil) while still fed with HFD. Mice were sacrificed after 4 weeks of treatment.
Mice were weighted and tissues (livers, blood, duodenum, jejunum, ileum, white fat) were removed, weighted and snap frozen in liquid nitrogen and stored at –80 °C until analysis. Blood was collected from the retro-orbital sinus of mice under isoflurane anesthesia into heparin-coated tubes (Kabe Laboratortechnik GmbH, Nümbrecht-Elsenroth, Germany) after 3 h fasting and analyzed on AU480 biochemistry analyzer (Beckman Coulter, Brea, USA). Sample preparation for bile acid and cholesterol analyses from tissues or feces is described below. One of the liver lobes was fixed in formalin, embedded in paraffin blocks, sectioned, and subjected to H&E staining. Blood was analyzed as described in Supplementary, Chapter 10.
Blood was collected from the retro-orbital sinus of mice under isoflurane anesthesia into heparin-coated tubes (Kabe Laboratortechnik GmbH, Nümbrecht-Elsenroth, Germany) after 3 hours of fasting. Blood was left for 10 minutes at room temperature, and then kept on ice until centrifugation (5,000 g at 4°C for 10 minutes). The collected plasma was stored at -80 °C until measurement. Lipoprotein levels and other plasmatic parameters were measured on an AU480 biochemistry analyzer (Beckman Coulter, Brea, USA).

[2] = system: FXR, LXRα, LXRβ, THα, GRα, PPARα, PPARδ/β, PPARγ, AhR, VD, ERα, ERβ, mouse Car; test: Nuclear receptor luciferase reporter panel (statements on the whole panel); type: cell-based
Text: (see Supplementary Chapter 7).
Thank you for the insightful question and comment. We have corrected the sentence to read:
Thank you for the idea. Yes, we conducted luciferase reporter assays in antagonistic "mode" for several nuclear receptors using their prototype ligands in the revised manuscript (Figure R7).
This information is included in the Supplementary Information.
Treatment with 5 and 10 µM
(1 picture or pasted object on this page, not shown here) […]
nM dexamethasone, 10 µM GW3965 (LXRα agonist), and 10 µM estradiol. Data are presented as a […]

[3] = HFD and HCD studies (Fig. 4e, h)
[4] = HFD, MI883 HFD, individual animals
[5] = chow / vehicle / MI-883, individual animals
[6] = individual animals, MI-883 vs vehicle
[7] = normal diet, individual animals

For `NC(=O)c1cc(Cn2cc(-c3c(-c4ccc(Cl)cc4)nc4cc(F)ccn34)nn2)ccc1Cl` [MI-883, 2-chloro-5-((4-(2-(4-chlorophenyl)-7-fluoroimidazo[1,2-a]pyridin-3-yl)-1H-1,2,3-triazol-1-yl)methyl)benzamide], the “CYP7A1 mRNA in HepaRG KO CAR cells” value (HepaRG KO CAR cells) was “induced”, the “CYP2B6 mRNA, RT-qPCR, HepaRG KO CAR (Fig. 1f), replicates” value (HepaRG KO CAR cells; Phenobarbital 500 μM, CITCO 1 μM, MI 883 1 μM, ctrl = 1) was 0.55 and 0.6 and 0.76 and the “PXR/TIF2 (NCOA2) two-hybrid activity, replicates” value (PXR/NCOA2; MI-883 30 μM) was 1.15 and 1.65 and 1.3 and 1.26 and 0.52. The “PXR/TIF2 (NCOA2) two-hybrid activity, replicates” value (PXR/NCOA2; single agent: RIF (10 µM), MI-883 10 μM) was 0.75 and 0.81 and 0.95 and 0.79 and 0.57, the BW ([1]; time point 0) was 100 and the BW ([1]; time point 3) was 99.94. It also gave a BW ([1]; time point 4) of 99.69, a BW ([1]; time point 7) of 98.81 and a BW ([1]; time point 8) of 98.7. It also gave a BW ([1]; time point 9) of 99.01, a BW ([1]; time point 11) of 97.62 and a BW ([1]; time point 14) of 97.62. For the same molecule, the BW ([1]; time point 16) was 98.66, the BW ([1]; time point 18) was 95.35 and the BW ([1]; time point 21) was 95.54. The BW ([1]; time point 25) was 95.05, the “hepatic histology, morphology, steatosis with ballooning cells” value ([1]; H&E staining) was “did not observe affected hepatic histology, morphology, and steatosis” and the “plasma HDL cholesterol concentrations in males” value ([1]; HFD and HCD studies) was “decrease”. The “plasma LDL cholesterol levels” value [1, 3] was “systematic decrease”, the “total plasma cholesterol concentration” value [1, 3] was “systematic decrease” and the ALB ([1]; HFD female, individual animals) was 24.33 and 24.2 and 23.24 and 26.55 and 24.9. The ALP ([1]; HFD female, individual animals) was 113 and 92 and 67 and 82 and 103 and 98 and 123 and 110 and 111 and 88 and 70 and 60 and 74 and 94 and 83 and 97, the ALT ([1]; HFD female, individual animals) was 22 and 33 and 42 and 31 and 44 and 26 and 25 and 20 and 30 and 27 and the AST ([1]; HFD female, individual animals) was 36 and 56 and 60 and 42 and 80 and 46 and 43 and 45 and 48 and 52. For the same molecule, the Bilirubin ([1]; HFD female, individual animals) was 1.91 and 1.99 and 1.49 and 1.73 and 2.08 and 1.88 and 2.79 and 0.89 and 1.63 and 0.8 and 1.21 and 0.66 and 1.02 and 0.93, the CREZ ([1]; HFD female, individual animals) was 8.81 and 10.944 and 9.86 and 9.877 and 9.32 and 9.613 and 6.396 and the Fe ([1]; HFD female, individual animals) was 19.66 and 16.34 and 16.57 and 13.12 and 20.06 and 22.23 and 20.85. The LDH ([1]; HFD female, individual animals) was 105.53 and 141.23 and 148.87 and 187.77 and 168.5 and 171.83 and 139.86 and 141.62 and 132.6 and 117.06 and 243.58 and 169.43 and 199.88 and 175.99 and 186.41 and 240.46 and 159.98, the Urea ([1]; HFD female, individual animals) was 6.32 and 7.96 and 9.13 and 6.71 and 5.59 and 7.45 and 7.35 and 5.3 and the “body weight or food intake” value ([1]; HFD, 5 mg/kg 3× per week p.o., one month) was “no significant effect”. For the same molecule, the “liver weight (LW) and liver-to-body weight (LW/BW)” value ([1]; HFD, after 1-month application) was “increase”, the ALB [1, 4] was 30.28 and 28.44 and 27.19 and 26.19 and 27.85 and 26.86 and 29.5 and 28.87 and 29.11 and 28.18 and 27.81 and 29.6 and 31.94 and 31.6 and 25.37 and 30.94 and the ALP [1, 4] was 46 and 65 and 58 and 53 and 57 and 59 and 87 and 78 and 134 and 85 and 147 and 42 and 80 and 203 and 48 and 62 and 47. For the same molecule, the ALT [1, 4] was 111 and 104 and 91 and 82 and 86 and 81 and 194 and 185 and 231 and 101 and 144 and 333 and 40 and 171 and 279 and 78 and 136 and 35, the AST [1, 4] was 61 and 103 and 71 and 75 and 84 and 65 and 111 and 106 and 115 and 97 and 60 and 215 and 57 and 86 and 96 and 62 and the Bilirubin [1, 4] was 6.24 and 2.33 and 2.77 and 2.03 and 2.43 and 2.14 and 2.07 and 1.65 and 0.69 and 0.83 and 0.78 and 2.19 and 1.62 and 2.1 and 2.2 and 2.29 and 2.82 and 3.89. The CREZ [1, 4] was 6.64 and 6.515 and 6.651 and 6.864 and 6.4 and 11.788 and 9.016 and 8.705 and 10.01 and 10.479 and 10.075 and 9.458 and 9.179 and 10.214 and 7.193 and 7.711, the Fe [1, 4] was 25.96 and 27.35 and 19.07 and 29.46 and 21.87 and 40.46 and 33.38 and 35.58 and 29.04 and 23.68 and 27.39 and 20.96 and 37.12 and 36.65 and 34.04 and 37.51 and 32.98 and 21.67 and 30.02 and 31.93 and the LDH [1, 4] was 198.22 and 263.31 and 253.93 and 193.25 and 209.81 and 272.82 and 399.88 and 396.59 and 572.08 and 407.53 and 224.02 and 465.2 and 571.59 and 132.99 and 401.74 and 1012.86 and 180.55 and 261.31 and 251.38 and 204.74. The Urea [1, 4] was 8.86 and 6.88 and 6.46 and 8.34 and 10.25 and 5.64 and 6.34 and 6.16 and 6.83 and 6.9 and 7.15 and 6.75 and 6.76 and 5.98 and 5.4, the Uric acid [1, 4] was 34.39 and 75.29 and 81.6 and 51.23 and 51.93 and 56.87 and 65.17 and 44.52 and 78.74 and 74.95 and 74.71 and 112.08 and 32.89 and 40.5 and 30.33 and 46.79 and 41.52 and 45.58 and 40.84 and the “food intake (Fig 4c)” value ([1]; MI-883 vs vehicle line) was 2.1 and 3.3 and 2.8 and 2.6 and 2.7. The “triglycerides and glucose concentrations in males” value ([1]; both studies) was “did not see any significant effects”, the “signs of hepatotoxicity or nephrotoxicity based on biochemical parameters” value ([1]; both studies (HFD, HCD)) was “did not observe” and the “other plasma biochemical parameters” value ([1]; both studies, Supplementary Fig. 11) was “did not impact”. The “Chol (Fig. 4e)” value [1, 5] was 4.25 and 4.28 and 2.95 and 3.55 and 3.29 and 4.43 and 4.16 and 4.71 and 4.02 and 3.77 and 3.86 and 4.66 and 3.96 and 4.68 and 3.68, the “Glu (Fig. 4e)” value [1, 5] was 10.58 and 14.95 and 11.18 and 14.52 and 13.99 and 12.86 and 13.45 and 16.77 and 19.28 and 18.71 and 17.05 and 15.9 and 14.58 and 9.64 and 14.8 and 12.42 and the “HDL (Fig. 4e)” value [1, 5] was 3.307 and 3.291 and 2.143 and 2.747 and 3.405 and 3.464 and 3.127 and 2.59 and 3.382 and 3.348 and 3.749 and 3.32 and 3.251 and 2.944 and 3.197 and 2.432 and 3.457 and 2.752. For the same molecule, the “LDL (Fig. 4e)” value [1, 5] was 0.69 and 0.66 and 0.46 and 0.49 and 0.67 and 0.52 and 0.82 and 0.7 and 1.08 and 0.75 and 0.63 and 0.85 and 1.01 and 0.81, the “TG (Fig. 4e)” value [1, 5] was 3.307 and 3.291 and 2.143 and 2.747 and 3.405 and 3.464 and 3.127 and 2.59 and 3.382 and 3.348 and 3.749 and 3.32 and 3.251 and 2.944 and 3.197 and 2.432 and 3.457 and 2.752 and the “BW (Fig 4b)” value [1, 6] was 36.3 and 38.1 and 36.8 and 38.8 and 38 and 34.3 and 36.4 and 31 and 45.2 and 42 and 35.4 and 38.9 and 39.5 and 42.8 and 39.3 and 39.9 and 40 and 37 and 42.6 and 40.9 and 39.2 and 38.5. For the same molecule, the “LW (Fig 4b)” value [1, 6] was 2.77 and 2.32 and 1.65 and 2.28 and 2.58 and 2.48 and 2.14 and 2.06 and 1.7 and 3.5 and 3.3 and 1.85 and 3.4 and 3.1 and 4.26 and 3.42 and 3.33 and 3.06 and 2.35 and 3.38 and 2.25 and 3.12 and 1.56, the diarrhea ([1]; mouse, in vivo) was “did not observe any diarrhea” and the “Chol (Fig. 4e)” value [1, 7] was 1.85 and 1.75. The “Glu (Fig. 4e)” value [1, 7] was 12.37 and 16.62, the “HDL (Fig. 4e)” value [1, 7] was 1.205 and 1.168 and the “LDL (Fig. 4e)” value [1, 7] was 0.45 and 0.42. The “TG (Fig. 4e)” value [1, 7] was 1.205 and 1.168, the “interactions with other tested nuclear receptors (agonist mode)” value ([2]; 10 µM, 24 h, HepG2) was “no other interactions” and the “inhibition of other nuclear receptors, antagonistic mode (FXR, THα, AhR, PPARα, PPARγ, GR, LXRα)” value ([2]; 5 and 10 μM with prototype ligands) was “not inhibit the other nuclear receptors”.
